Data: patent US20260325605A1, “INHIBITORS” (Zealand Pharma A/S, priority 2022, published 2026)
pIC50: −log10 of the molar value.

Key:
Kv1.6 = molecular target: T1, Kv1.6 (Homo sapiens, UniProt P17658); assay: Patch clamp assay (QPatch), Kv1.6; format: cell-based
T1 construct: expressed in transfected cells
Protocol: Selectivity of Kv1.3 inhibitor peptides for Kv1.3 over other potassium ion channels (Kv1.1, Kv1.2 and Kv1.6) was determined using patch clamp assay.
Chinese Hamster Ovary (CHO) cell lines stably expressing exogenous human α-subunits of each potassium ion channel were grown and passaged under standard culture conditions.
The automated, chip-based planar patch clamp device QPatch® was used to quantitate the ionic currents. All recordings were made in the conventional whole-cell configuration after establishment of gigaohm seals. […] During experiments 0.1% (v/v) BSA was included as a vehicle in all external recording solutions. Currents were elicited from a holding potential of −80 mV using a voltage protocol, which shifted the voltage to 30 mV for 500 ms every 15 s.
Concentration-response relationships were established by cumulatively applying seven escalating concentrations of test sample to an individual cell with a recording period of 2 min per compound application.
The efficacy was determined as the mean charge for the last three sweeps at the end of each concentration application period from the cursor positions. The percent inhibition for each test dose application period was calculated as the reduction in mean cursor value (charge) relative to the cursor value measured at the end of the vehicle period and used to calculate the IC50 from the concentration response curve.

[1] = test system: collagen-induced arthritis in rats; assay: Example 9: Rat collagen-induced arthritis (CIA) model, clinical score; format: in vivo, rat (Lewis); design: key: qualitative severity score summed over four paws, maximum 16
Protocol: Vehicle: 10 mM phosphate pH 6+0.8% NaCl+0.05% polysorbate 20
Peptide: Peptide 100 is formulated in vehicle at 50 nmol/mL. Dosing volume was individually adjusted according to the body weight of each animal to reach the target dose of peptide 100 of 100 nmol/kg.
(§1) The animal care facility employed is accredited by AAALAC. Female Lewis rats, weighing 180±20 g at delivery were used for this study. Following arrival in the animal facility, all animals were subjected to a general health evaluation. An acclimation period of 1 day was allowed before the beginning of the study.
Animals were grouped into 9 each based on their body weight. All animals were challenged with porcine type-II collagen with incomplete Freund's adjuvant on day 1 (0.2 mg/0.2 mL/rat, subcutaneously at the base of the tail) and boosted on day 7 (0.1 mg/0.1 mL/rat, s.c.). In the study dexamethasone given daily PO at 0.3 mg/kg was used as a positive control.
From day 12 to day 30, peptide 100 was administered as a single bolus either daily (QD), every third day (Q3D) or every fifth day (Q5D) subcutaneously into the flank. […] The peptide and vehicle were dosed at a volume of 2 mL/kg. Dosing volume was individually adjusted according to the body weight of each animal to reach the target dose of formulation 1 of 100 nmol/kg.
Disease was assessed by using a qualitative severity score system (see below, maximum score of 16) on days 1, 7, 10, 12 (before dosing), 13, 14, 15, 16, 17, 18, 19, 20, 21, 22, 24, 26 and 28 before peptide treatment and one hour after treatment on day 30.
The disease severity score is based on the following:
The ability of Kv1.3 inhibitor treatment to reduce chronic inflammation in arthritis was investigated by comparing the response in rats (n=9 animals/group) treated with vehicle to that of rats treated with peptide 100 daily, every third day or every fifth day. The severity of arthritis was determined by summation of the disease score on all four paws from day 12 to day 30 for each animal.

[2] = test system: KLH-induced DTH ear swelling in rats; assay: Example 8: Long-lasting effect in KLH-induced delayed type hypersensitivity (DTH) model; format: in vivo, rat (Lewis)
Protocol: as §1
The animal room was maintained at a controlled temperature of 20-24° C. and a relative humidity of 30-70%. A controlled lighting system assured 12 hours light, 12 hours dark per day to the animals. Adequate ventilation of 15 air changes per hour was maintained.
This study was performed to investigate the length of effect of a Kv1.3 inhibitor (peptide 100) on ear inflammation in the KLH-induced DTH model in rats.
Healthy male Lewis rats aged 8-9 weeks were immunized on day 0 with 200 μL keyhole limpet hemocyanin (KLH) (from Sigma, cat.no. H7017) (4 mg/mL) emulsified in complete Freund's adjuvant (CFA) (Difco, cat.no. 263810) subcutaneously (SC) at the base of the tail.
To elicit a KLH-specific T cell-mediated local inflammation, rats were challenged intradermally at indicated timepoints (days 7, 9, 11 or 13 post-immunisation) with 40 μL KLH/NaCl 0.9% (2 mg/mL) in the left ear. Ear edemas were measured after 24-48 hrs and the right ear that was left untreated served as control. A schematic overview of the protocol is depicted in FIG. 1.
The ability of Kv1.3 inhibitor treatment to reduce the DTH ear swelling response was investigated by comparing the response in rats (n=8/group) treated with vehicle to that of rats treated with peptide 100. Vehicle or peptide 100 dissolved in vehicle was administered SC (2 mL/kg) on day 6. The test dose of Kv1.3 inhibitor was 300 nmol/kg. Test vehicle was 10 mM phosphate, 0.8% w/v NaCl, 0.05% w/v polysorbate20, pH 6. Cyclosporine A (CsA) was included as positive study control.
As readout of efficacy, the thickness of the induced ear 24 hrs and 48 hrs after respective ear challenge was measured and compared to vehicle control. Ear thickness 24 hrs after challenge is shown in Table 10 and FIG. 2 and ear thickness 48 hrs after challenge is shown in Table 11 and FIG. 3.

Kv1.1 = molecular target: T2, Kv1.1 (Homo sapiens, UniProt Q09470); assay: Patch clamp assay (QPatch), Kv1.1; format: cell-based
T2 construct: expressed in transfected cells
T2 sequence (Q09470 whole entry): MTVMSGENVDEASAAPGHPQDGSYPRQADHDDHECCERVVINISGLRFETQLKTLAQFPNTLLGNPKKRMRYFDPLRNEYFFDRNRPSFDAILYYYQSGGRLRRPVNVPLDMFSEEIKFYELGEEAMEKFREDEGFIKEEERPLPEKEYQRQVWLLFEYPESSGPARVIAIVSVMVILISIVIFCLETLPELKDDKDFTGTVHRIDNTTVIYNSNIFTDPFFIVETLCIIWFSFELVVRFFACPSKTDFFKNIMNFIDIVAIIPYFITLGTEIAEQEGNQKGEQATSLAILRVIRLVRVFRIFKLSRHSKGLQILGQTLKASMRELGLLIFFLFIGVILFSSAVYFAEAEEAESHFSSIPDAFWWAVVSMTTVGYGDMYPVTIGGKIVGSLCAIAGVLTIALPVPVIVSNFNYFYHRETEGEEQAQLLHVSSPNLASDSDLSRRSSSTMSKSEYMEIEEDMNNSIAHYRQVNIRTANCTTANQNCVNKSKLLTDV

T1 sequence (P17658 whole entry): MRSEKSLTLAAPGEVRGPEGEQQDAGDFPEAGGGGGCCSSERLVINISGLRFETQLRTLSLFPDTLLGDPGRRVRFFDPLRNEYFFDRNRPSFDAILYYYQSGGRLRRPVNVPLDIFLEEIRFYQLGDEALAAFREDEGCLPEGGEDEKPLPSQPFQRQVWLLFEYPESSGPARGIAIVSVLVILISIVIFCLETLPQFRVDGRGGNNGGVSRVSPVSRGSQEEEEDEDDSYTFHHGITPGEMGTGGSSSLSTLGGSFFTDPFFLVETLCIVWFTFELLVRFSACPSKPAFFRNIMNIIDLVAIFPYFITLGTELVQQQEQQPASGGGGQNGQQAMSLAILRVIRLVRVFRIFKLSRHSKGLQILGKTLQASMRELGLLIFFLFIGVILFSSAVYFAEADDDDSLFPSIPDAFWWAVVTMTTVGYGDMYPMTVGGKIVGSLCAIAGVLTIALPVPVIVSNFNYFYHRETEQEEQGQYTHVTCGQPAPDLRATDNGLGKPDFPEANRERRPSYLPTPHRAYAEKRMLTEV

H-P[Nle]E[Nle]RC(1)SASVEC(2)KQKC(3)LAAIGSIFGKC(1)[Nle]NKKC(2)KC(3)YPR-OH [Peptide 100]
pIC50 (Kv1.6; QPatch, CHO cells stably expressing human Kv1.6, read-out: Potency IC50, Kv1.6): < 5.52 | Selectivity Kv1.6/Kv1.3 (Kv1.6; ratio of IC50 Kv1.6/Kv1.3): >9100 | Mean clinical score ([1]; 100 nmol/kg s.c. daily, every third day or every fifth day, day 12 to day 30, in words): reduction of the mean clinical score with all dosing regimens | Mean clinical score ([1]; Q3D SC 100 nmol/kg, day 12): 0.8 | Mean clinical score ([1]; Q3D SC 100 nmol/kg, day 13): 2.0 | Mean clinical score ([1]; Q3D SC 100 nmol/kg, day 14): 4.1 | Mean clinical score ([1]; Q3D SC 100 nmol/kg, day 15): 4.4 | Mean clinical score ([1]; Q3D SC 100 nmol/kg, day 16): 5.0 | Mean clinical score ([1]; Q3D SC 100 nmol/kg, day 17): 5.6 | Mean clinical score ([1]; Q3D SC 100 nmol/kg, day 18): 6.4 | Mean clinical score ([1]; Q3D SC 100 nmol/kg, day 19): 6.6 | Mean clinical score ([1]; Q3D SC 100 nmol/kg, day 20): 7.2 | Mean clinical score ([1]; Q3D SC 100 nmol/kg, day 21): 7.3 | Mean clinical score ([1]; Q3D SC 100 nmol/kg, day 22): 8.0 | Mean clinical score ([1]; Q3D SC 100 nmol/kg, day 24): 8.2 | Mean clinical score ([1]; Q3D SC 100 nmol/kg, day 26): 8.4 | Mean clinical score ([1]; Q3D SC 100 nmol/kg, day 28): 9.0 | Mean clinical score ([1]; Q3D SC 100 nmol/kg, day 30): 10.0 | Mean clinical score ([1]; Q5D SC 100 nmol/kg, day 12): 2.4 | Mean clinical score ([1]; Q5D SC 100 nmol/kg, day 13): 3.3 | Mean clinical score ([1]; Q5D SC 100 nmol/kg, day 14): 4.6 | Mean clinical score ([1]; Q5D SC 100 nmol/kg, day 15): 4.9 | Mean clinical score ([1]; Q5D SC 100 nmol/kg, day 16): 5.4 | Mean clinical score ([1]; Q5D SC 100 nmol/kg, day 17): 5.8 | Mean clinical score ([1]; Q5D SC 100 nmol/kg, day 18): 6.2 | Mean clinical score ([1]; Q5D SC 100 nmol/kg, day 19): 6.4 | Mean clinical score ([1]; Q5D SC 100 nmol/kg, day 20): 6.9 | Mean clinical score ([1]; Q5D SC 100 nmol/kg, day 21): 7.1 | Mean clinical score ([1]; Q5D SC 100 nmol/kg, day 22): 7.6 | Mean clinical score ([1]; Q5D SC 100 nmol/kg, day 24): 8.2 | Mean clinical score ([1]; Q5D SC 100 nmol/kg, day 26): 8.5 | Mean clinical score ([1]; Q5D SC 100 nmol/kg, day 28): 9.0 | Mean clinical score ([1]; Q5D SC 100 nmol/kg, day 30): 9.4 | Mean clinical score ([1]; QD SC 100 nmol/kg, day 12): 0.8 | Mean clinical score ([1]; QD SC 100 nmol/kg, day 13): 2.1 | Mean clinical score ([1]; QD SC 100 nmol/kg, day 14): 4.3 | Mean clinical score ([1]; QD SC 100 nmol/kg, day 15): 4.7 | Mean clinical score ([1]; QD SC 100 nmol/kg, day 16): 5.8 | Mean clinical score ([1]; QD SC 100 nmol/kg, day 17): 6.0 | Mean clinical score ([1]; QD SC 100 nmol/kg, day 18): 6.6 | Mean clinical score ([1]; QD SC 100 nmol/kg, day 19): 6.7 | Mean clinical score ([1]; QD SC 100 nmol/kg, day 20): 7.0 | Mean clinical score ([1]; QD SC 100 nmol/kg, day 21): 7.1 | Mean clinical score ([1]; QD SC 100 nmol/kg, day 22): 7.1 | Mean clinical score ([1]; QD SC 100 nmol/kg, day 24): 6.9 | Mean clinical score ([1]; QD SC 100 nmol/kg, day 26): 7.0 | Mean clinical score ([1]; QD SC 100 nmol/kg, day 28): 7.8 | Mean clinical score ([1]; QD SC 100 nmol/kg, day 30): 8.4 | effect on KLH-induced ear swelling / inflammation ([2]; 300 nmol/kg on day 6, challenges on days 7, 9 and 11, in words): reduced KLH-induced ear swelling after challenges on days 7, 9 and 11 | Mean ear thickness of KLH-induced ear ([2]; 300 nmol/kg s.c. day 6, challenge day 7, 24 hrs post-challenge (2 days post-treatment), vehicle 0.796, p<0.0001): 0.676±0.017 mm | Mean ear thickness of KLH-induced ear ([2]; 300 nmol/kg s.c. day 6, challenge day 7, 48 hrs post-challenge (3 days post-treatment), vehicle 0.733, p<0.0001): 0.623±0.015 mm | Mean ear thickness of KLH-induced ear ([2]; 300 nmol/kg s.c. day 6, challenge day 9, 24 hrs post-challenge (4 days post-treatment), vehicle 0.761, p=0.0011): 0.689±0.031 mm | Mean ear thickness of KLH-induced ear ([2]; 300 nmol/kg s.c. day 6, challenge day 9, 48 hrs post-challenge (5 days post-treatment), vehicle 0.729, p=0.0002): 0.659±0.034 mm | Mean ear thickness of KLH-induced ear ([2]; 300 nmol/kg s.c. day 6, challenge day 11, 24 hrs post-challenge (6 days post-treatment), vehicle 0.784, p<0.0001): 0.681±0.023 mm | Mean ear thickness of KLH-induced ear ([2]; 300 nmol/kg s.c. day 6, challenge day 11, 48 hrs post-challenge (7 days post-treatment), vehicle 0.746, p<0.0001): 0.653±0.013 mm | Mean ear thickness of KLH-induced ear ([2]; 300 nmol/kg s.c. day 6, challenge day 13, 24 hrs post-challenge (8 days post-treatment), vehicle 0.767, p=0.0696, not significant): 0.729±0.038 mm | Mean ear thickness of KLH-induced ear ([2]; 300 nmol/kg s.c. day 6, challenge day 13, 48 hrs post-challenge (9 days post-treatment), vehicle 0.720, p=0.2256, not significant): 0.699±0.028 mm | Mean ear thickness of KLH-induced ear ([2]; measured 48 hrs post-challenge, day 3 post-treatment, 300 nmol/kg SC): 0.623 mm | Mean ear thickness of KLH-induced ear ([2]; measured 48 hrs post-challenge, day 5 post-treatment, 300 nmol/kg SC): 0.659 mm | Mean ear thickness of KLH-induced ear ([2]; measured 48 hrs post-challenge, day 7 post-treatment, 300 nmol/kg SC): 0.653 mm | Mean ear thickness of KLH-induced ear ([2]; measured 48 hrs post-challenge, day 9 post-treatment, 300 nmol/kg SC): 0.699 mm | pIC50 (Kv1.1; QPatch, CHO cells stably expressing human Kv1.1, read-out: Potency IC50, Kv1.1): < 5.52 | Selectivity Kv1.1/Kv1.3 (Kv1.1; ratio of IC50 Kv1.1/Kv1.3): >9100
